Measured values taken from patent US10363251B2, “(+)-morphinans as antagonists of toll-like receptor 9 and therapeutic uses thereof” (Mallinckrodt LLC, priority 2009, dated 2019).
Entries after “also recorded” stand apart in the source; their conditions may differ.

How the values were obtained:
[1] = system: hepatic ischemia reperfusion (IR) injury; assay: Hepatic ischemia reperfusion (IR) injury model; assay type: in vivo, mouse
Experimental: Anesthetized mice were subjected to 1 hour of hepatic ischemia by occluding the vasculature supplying the left and median lobes (ischemic lobes) of the liver by a microvascular clamp. Thereafter, the blood supply was resumed (reperfusion). Some animals were sacrificed after 3 hour of reperfusion, and others after 12 hours or reperfusion. The experimental group received Cmpd II-78 at a dose of 80 mg/kg given intraperitoneally 1 hour prior to starting ischemia. The compound was administered before the start of ischemia to mimic the presumed clinical timing of delivery.
Livers were sectioned, stained, examined, and scored (Suzuki scoring system) based on the presence and/or severity of sinusoidal congestion, cytoplasmic vacuolization, and necrosis of parenchymal cells, as indicated in the table below. The levels of serum alanine transaminase (ALT) were also measured using a standard assay.
IL-1β, MCP-1, and NLPR3 have pro-inflammatory and tissue damaging properties, and IL-1R antagonist (IL-1Ra) has anti-inflammatory and pro-reparative functions in the liver. MAP kinases are part of an important cytoplasmic signaling cascade that are known to be activated (i.e., phosphorylated) by IR. The levels of IL-1β, MCP-1, NLPR3, and IL-1Ra mRNA were determined in whole liver (at the 12 hour time point) using standard techniques (e.g., RT-PCR). The activation of MAP kinases was determined in whole liver lysates by Western blotting using phospho-specific antibodies (12 hour time point).

[2] = system: cytoplasmic DNA receptor AIM2; assay: IFN-β up-regulation in plasmacytoid dendritic cells by poly (dA:dT); assay type: cell-based
Text: (§1) TLR9 signalling involves activation of NF-κB and IRF downstream pathways. The (+)-morphinan inhibited both of these pathways following activation of TLR9 (but not activation of TLR4 or other receptors). The type C TLR9 agonist, ODN2395, and the TL4 agonist, LPS, both induce up-regulation of IL-1β in peritoneal macrophages via activation of NF-κB.

TLR9 [3] = assay: IL-1β up-regulation in peritoneal macrophages by TLR9 agonist ODN2395; assay type: cell-based
Text: as §1

TLR9 [4] = molecular target: T1, TLR9 (Homo sapiens, UniProt Q9NR96); assay: TLR9 screening of (+)-morphinan library, SEAP reporter in HEK293 cells expressing TLR9; assay type: cell-based; conditions: activator ODN2006; for OD 650 nm (mean ± sd): control (no activator) 0.14, activator 1.42 OD
T1 construct: expressed in transfected cells; host or cells: HEK293
T1 sequence (Q9NR96 26-1032): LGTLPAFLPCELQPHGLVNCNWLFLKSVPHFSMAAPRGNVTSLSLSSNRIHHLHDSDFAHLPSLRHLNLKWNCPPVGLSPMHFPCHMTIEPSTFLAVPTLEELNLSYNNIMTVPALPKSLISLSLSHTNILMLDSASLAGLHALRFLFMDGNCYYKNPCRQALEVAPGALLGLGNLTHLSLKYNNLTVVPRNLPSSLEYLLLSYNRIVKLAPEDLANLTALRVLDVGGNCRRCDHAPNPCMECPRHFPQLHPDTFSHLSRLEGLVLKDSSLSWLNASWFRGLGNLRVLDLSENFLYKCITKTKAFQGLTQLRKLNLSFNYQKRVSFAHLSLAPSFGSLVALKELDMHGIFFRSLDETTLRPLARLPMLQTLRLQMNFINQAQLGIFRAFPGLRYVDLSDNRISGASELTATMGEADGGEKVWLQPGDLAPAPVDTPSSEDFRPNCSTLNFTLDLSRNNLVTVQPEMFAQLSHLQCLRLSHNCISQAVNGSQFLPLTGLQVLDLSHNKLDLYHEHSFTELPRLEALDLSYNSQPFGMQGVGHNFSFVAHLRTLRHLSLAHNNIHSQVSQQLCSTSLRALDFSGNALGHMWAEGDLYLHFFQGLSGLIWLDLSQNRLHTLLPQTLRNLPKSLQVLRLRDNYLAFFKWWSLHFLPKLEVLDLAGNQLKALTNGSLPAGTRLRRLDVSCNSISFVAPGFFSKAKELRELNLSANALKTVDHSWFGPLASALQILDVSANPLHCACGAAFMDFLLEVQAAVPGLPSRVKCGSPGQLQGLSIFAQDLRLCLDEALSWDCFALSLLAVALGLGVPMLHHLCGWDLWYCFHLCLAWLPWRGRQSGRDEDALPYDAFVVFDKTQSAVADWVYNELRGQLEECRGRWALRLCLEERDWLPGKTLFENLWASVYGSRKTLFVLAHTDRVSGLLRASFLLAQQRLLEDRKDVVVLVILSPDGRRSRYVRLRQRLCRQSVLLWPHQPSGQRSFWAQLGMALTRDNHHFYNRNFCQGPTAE
How it was run: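 HEK293 cells expressing TLR9 with an NF-κB-inducible SEAP reporter were preincubated with compound at 10 μM and 100 nM for 30 min at 37 °C, then stimulated with ODN2006. SEAP was read as OD 650 nm after 16-20 h, in triplicate.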

[5] = system: chronic constriction injury (CCI) neuropathic pain model; assay: Reversal of allodynia (von Frey) in CCI rats, 4 days of dosing, Example 4; assay type: in vivo, rat; conditions: i.p. once a day for 4 days from day 14; tested 3 hrs after dosing; ultra low to high dose; vs saline
Experimental: Allodynia was induced in a group of (male, Sprague-Dawley) rats essentially as described above in Example 3. Prior to surgery, animals were tested to establish their baseline von Frey scores. Any animal with a Log absolute von Frey score lower than 4.65 on either leg was excluded from the study. CCI surgery was performed on the left sciatic nerve as detailed above. On days 4 and 14 post-surgery, the animals were tested using the von Frey test of mechanical allodynia to ensure that allodynia was established.
Beginning at about day 14 post-surgery, the animals were dosed once a day for 4 days. Compounds II-25, II-93, II-62, and III-2 were tested. All drugs were administered intraperitoneally (i.p.). Allodynia was tested prior to and again 3 hrs after each dosing. Drug administration and testing was done blindly. After the 4th day of dosing, the animals were sacrificed, cardiac perfusion was performed, and spinal cords were removed and stored for further analysis.
All data were analyzed using 2-way ANOVA's with Bonferroni's post hoc test compared to saline unless otherwise stated. Area under curve (AUC) was calculated using Graphpad Prism and comparisons were made using 1-way ANOVA with Dunnet's post hoc test.

[6] = whole liver, 12 hours of reperfusion

SMILES	Histological Suzuki score (hepatic IR injury) ([1]; 80 mg/kg ip 1 hour prior to ischemia, 1 h ischemia, 3 and 12 hours of reperfusion)	IR-induced serum ALT levels ([1]; 80 mg/kg ip, 3 and 12 hours of reperfusion)	Liver injury (serum ALT) ([1]; 80 mg/kg ip, 3 hour time point)	Liver injury (serum ALT) ([1]; 80 mg/kg ip, 12 hour time point)	IR-induced cleavage and activation of TLR9 (western blotting) ([1]; liver)	IR-induced activation of MAP kinases (western blotting) ([1]; whole liver lysates, 12 hour time point)	Anti-inflammatory molecule IL-1Ra mRNA relative to β-actin [1, 6]	IR-induced pro-inflammatory cytokines (IL-1β, MCP-1, NLPR3 mRNA relative to β-actin) [1, 6]	IFN-β up-regulation [2]	IL-1β mRNA up-regulation (NF-κB pathway) (TLR9 [3])	OD 650 nm (mean ± sd) (TLR9 [4]; 100 nM) [OD]	OD 650 nm (mean ± sd) (TLR9 [4]; 10 μM) [OD]	inhibition at 0.1 µM (TLR9 [4]; HEK293, read-out: % Inhibition (mean), 100 nM) [%]	inhibition at 10 µM (TLR9 [4]; HEK293, read-out: % Inhibition (mean), 10 μM) [%]	Reversal of allodynia (von Frey) [5]
CN[C@@H]1CC[C@]2(O)[C@@H]3Cc4ccc(O)c5c4[C@]2(CCN3CC2CC2)[C@@H]1O5 [II-78]	reduced hepatic ischemic reperfusion (IR) injury	reduced IR-induced serum alanine transaminase (ALT) levels	trend towards reduction	significantly reduced liver injury	reduction of IR-induced cleavage and activation of LTR9	reduction of IR-induced activation of MAP kinases	increased an anti-inflammatory molecule	reduced IR-induced pro-inflammatory cytokines	this activation was not blocked	response was inhibited; also recorded: reduced both NFκB- and IRF-dependent pathways downstream of TLR9	0.14 ± 0.02	0.11 ± 0.01	90	92	–
C=CCN1CC[C@]23c4c5ccc(O)c4O[C@H]2C(=O)CC[C@]3(O)[C@H]1C5 [(+)-Naloxone, (+)-naloxone]	–	–	–	–	–	–	–	–	–	–	–	–	–	–	not effective at reversing allodynia
